A short description of experiment [1]: DRUGMATRIX: Glutamate, NMDA, Phencyclidine radioligand binding (ligand: [3H] TCP). The following applies: Not Active = under 50% inhibition at 10 µM. Type of experiment: cell membranes, Rattus norvegicus, Wistar, Cerebral cortex, Membrane.
Experiment [2] has as its target T1, Polyunsaturated fatty acid lipoxygenase ALOX15 (Oryctolagus cuniculus, UniProt P12530).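 Further: inhibition of 15-lipoxygenase enzyme activity measured with linoleic acid as the substrate; in other assays of this panel Not Active means under 50% inhibition at 10 µM.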
T1 sequence (P12530 whole entry): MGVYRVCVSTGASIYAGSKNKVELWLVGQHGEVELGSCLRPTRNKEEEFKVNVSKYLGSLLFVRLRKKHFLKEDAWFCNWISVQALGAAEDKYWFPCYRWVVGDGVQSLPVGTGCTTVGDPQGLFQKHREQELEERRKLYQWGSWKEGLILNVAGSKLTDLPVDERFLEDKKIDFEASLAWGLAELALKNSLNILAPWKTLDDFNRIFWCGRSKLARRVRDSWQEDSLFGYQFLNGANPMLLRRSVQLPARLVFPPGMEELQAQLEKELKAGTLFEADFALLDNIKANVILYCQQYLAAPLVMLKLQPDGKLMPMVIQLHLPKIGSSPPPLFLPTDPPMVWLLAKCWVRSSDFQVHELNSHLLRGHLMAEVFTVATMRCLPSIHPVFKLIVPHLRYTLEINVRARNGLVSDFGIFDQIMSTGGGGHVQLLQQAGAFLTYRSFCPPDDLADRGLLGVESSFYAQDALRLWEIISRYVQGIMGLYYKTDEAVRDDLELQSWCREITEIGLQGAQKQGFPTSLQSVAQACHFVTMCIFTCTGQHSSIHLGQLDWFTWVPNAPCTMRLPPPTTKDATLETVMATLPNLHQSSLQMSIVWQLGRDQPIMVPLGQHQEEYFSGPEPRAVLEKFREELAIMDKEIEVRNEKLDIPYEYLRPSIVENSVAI
The experiment is described as follows: biochemical. The experiment is classed as tissue-based, Reticulocytes. The following applies: reticulocytes.

The target in experiment [3] is Beta-3 adrenergic receptor (Homo sapiens, UniProt P13945). Description: DRUGMATRIX: Adrenergic beta3 radioligand binding (ligand: [125I] Cyanopindolol). Particulars: Not Active = under 50% inhibition at 10 µM. The experiment is classed as cell membranes, HEK293, Membrane.
Chain of Beta-3 adrenergic receptor (P13945 whole entry): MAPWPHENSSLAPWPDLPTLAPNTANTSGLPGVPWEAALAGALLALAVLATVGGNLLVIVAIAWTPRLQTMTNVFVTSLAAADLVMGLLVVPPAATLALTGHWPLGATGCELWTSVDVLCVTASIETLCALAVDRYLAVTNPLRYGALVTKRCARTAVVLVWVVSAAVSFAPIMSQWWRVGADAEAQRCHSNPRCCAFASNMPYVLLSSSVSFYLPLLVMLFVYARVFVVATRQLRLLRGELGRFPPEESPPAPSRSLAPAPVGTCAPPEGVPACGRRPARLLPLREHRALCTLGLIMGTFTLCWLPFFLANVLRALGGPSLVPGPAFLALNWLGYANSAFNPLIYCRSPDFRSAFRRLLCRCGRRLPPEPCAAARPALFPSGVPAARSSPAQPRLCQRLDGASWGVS
The target in experiment [4] is Tyrosine-protein kinase Fyn (Homo sapiens, UniProt P06241). The experiment is described as follows: biochemical. The experiment is classed as cell-based, Insect cells. The following applies: insect cells.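 Further: enzymatic inhibition of Fyn kinase activity measured with Poly(Glu:Tyr) as the phosphorylation substrate; in other assays of this panel Not Active means under 50% inhibition at 10 µM.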
Chain of Tyrosine-protein kinase Fyn (P06241 whole entry): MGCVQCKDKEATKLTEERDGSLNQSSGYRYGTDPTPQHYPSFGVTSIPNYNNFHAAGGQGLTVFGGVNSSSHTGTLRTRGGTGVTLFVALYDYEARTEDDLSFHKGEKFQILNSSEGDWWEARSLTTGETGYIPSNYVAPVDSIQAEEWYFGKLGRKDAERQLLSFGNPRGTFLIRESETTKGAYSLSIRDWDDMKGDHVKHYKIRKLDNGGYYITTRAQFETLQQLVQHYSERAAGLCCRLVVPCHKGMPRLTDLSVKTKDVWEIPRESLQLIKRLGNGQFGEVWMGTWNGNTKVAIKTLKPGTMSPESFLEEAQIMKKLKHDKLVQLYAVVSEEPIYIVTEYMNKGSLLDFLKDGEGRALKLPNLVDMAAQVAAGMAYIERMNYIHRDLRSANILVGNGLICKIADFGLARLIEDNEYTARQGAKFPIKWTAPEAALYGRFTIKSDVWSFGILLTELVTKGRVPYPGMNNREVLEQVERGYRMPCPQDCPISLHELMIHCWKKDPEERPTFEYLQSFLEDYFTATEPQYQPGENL
Experiment [5] deals with Delta-type opioid receptor (Homo sapiens, UniProt P41143). The experiment is classed as cell membranes, HEK293, Membrane. Particulars: hek293.
Chain of Delta-type opioid receptor (P41143 whole entry): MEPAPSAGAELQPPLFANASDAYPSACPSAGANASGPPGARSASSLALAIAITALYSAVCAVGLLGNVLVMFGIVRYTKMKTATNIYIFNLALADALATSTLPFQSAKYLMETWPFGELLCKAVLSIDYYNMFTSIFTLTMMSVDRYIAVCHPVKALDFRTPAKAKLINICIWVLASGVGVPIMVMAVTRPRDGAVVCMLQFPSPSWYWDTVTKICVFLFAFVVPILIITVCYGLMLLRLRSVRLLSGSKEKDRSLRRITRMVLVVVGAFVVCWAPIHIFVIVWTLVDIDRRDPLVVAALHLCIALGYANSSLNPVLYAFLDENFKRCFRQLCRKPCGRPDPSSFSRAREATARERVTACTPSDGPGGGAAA
Experiment [6] addresses Sodium-dependent dopamine transporter (Homo sapiens, UniProt Q01959). Description: DRUGMATRIX: Dopamine Transporter radioligand binding (ligand: [125I] RTI-55). Type of experiment: cell membranes, CHO-K1, Membrane. Particulars: cho-k1; Not Active = under 50% inhibition at 10 µM.

Chain of Sodium-dependent dopamine transporter (Q01959 whole entry): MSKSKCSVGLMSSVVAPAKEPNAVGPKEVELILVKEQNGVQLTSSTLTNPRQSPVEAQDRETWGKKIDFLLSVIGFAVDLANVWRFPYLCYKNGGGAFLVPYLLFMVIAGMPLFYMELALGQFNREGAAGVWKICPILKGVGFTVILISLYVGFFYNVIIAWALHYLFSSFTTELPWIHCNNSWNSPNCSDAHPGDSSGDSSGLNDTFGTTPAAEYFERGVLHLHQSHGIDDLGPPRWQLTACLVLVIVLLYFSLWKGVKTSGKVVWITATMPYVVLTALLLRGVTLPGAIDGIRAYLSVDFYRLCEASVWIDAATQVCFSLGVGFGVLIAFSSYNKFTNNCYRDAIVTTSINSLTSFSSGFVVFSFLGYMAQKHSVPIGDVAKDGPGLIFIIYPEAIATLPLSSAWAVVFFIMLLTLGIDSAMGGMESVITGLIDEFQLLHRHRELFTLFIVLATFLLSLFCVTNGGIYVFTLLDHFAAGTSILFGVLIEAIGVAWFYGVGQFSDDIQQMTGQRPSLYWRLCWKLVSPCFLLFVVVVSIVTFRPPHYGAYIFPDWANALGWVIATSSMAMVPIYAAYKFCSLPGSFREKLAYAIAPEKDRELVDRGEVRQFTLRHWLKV

`CC(C)[C@H]1C(=O)N2CCC[C@H]2[C@]2(O)O[C@](NC(=O)[C@@H]3C=C4c5cccc6[nH]cc(c56)C[C@H]4N(C)C3)(C(C)C)C(=O)N12` [ERGOCORNINE]: the IC50 result in experiment [1], in experiment [2], in experiment [3] (hek293), in experiment [4], in experiment [5] and in experiment [6] was “Not Active” each time. In addition, the Ki entry in experiment [1] is listed as “Not Active”.
`CC(C)[C@@]1(NC(=O)[C@@H]2C[C@@H]3c4cccc5[nH]cc(c45)C[C@H]3N(C)C2)O[C@@]2(O)[C@@H]3CCCN3C(=O)[C@H](Cc3ccccc3)N2C1=O.CS(=O)(=O)O` [DIHYDROERGOCRISTINE MESYLATE]: the IC50 result in experiment [1] is “Not Active”; in experiment [2] it was “Not Active”; in experiment [3] (read-out: IC50), 3.31 µM; in experiment [4], “Not Active”; in experiment [5], “Not Active”; in experiment [6] it was “Not Active”. Moreover, the Ki entry was “Not Active” in experiment [1] and 2.48 µM in experiment [3] (read-out: Ki).
`C[C@]12CCC(=O)C=C1CC[C@@H]1[C@@H]2CC[C@@]2(C)[C@H]1CC[C@]2(C)O` [METHYLTESTOSTERONE]: the IC50 result in experiment [1], in experiment [2], in experiment [3] (hek293), in experiment [4], in experiment [5] and in experiment [6] was “Not Active” throughout. For the same molecule, the Ki entry in experiment [1] was “Not Active”.
With `Nc1nc2c(ncn2COCCO)c(=O)[nH]1` [ACYCLOVIR], the IC50 result in experiment [1], in experiment [2], in experiment [3] (hek293), in experiment [4], in experiment [5] and in experiment [6] was “Not Active” each time. In experiment [1], the Ki entry is “Not Active”.
`CC(C)CN(C[C@@H](O)[C@H](Cc1ccccc1)NC(=O)O[C@H]1CCOC1)S(=O)(=O)c1ccc(N)cc1`: the IC50 result in experiment [1], in experiment [2], in experiment [3] (hek293), in experiment [4], in experiment [5] and in experiment [6] was “Not Active” throughout. Moreover, the Ki entry in experiment [1] is “Not Active”.
As for `CN(C)CCCN1c2ccccc2Sc2ccccc21` [PROMAZINE], the IC50 result in experiment [1], in experiment [2], in experiment [3] (hek293), in experiment [4], in experiment [5] and in experiment [6] was “Not Active” in each case. Besides, the Ki result in experiment [1] is “Not Active”.
As to `Cc1c(C)c2c(c(C)c1O)CC[C@@](C)(CCC[C@H](C)CCC[C@H](C)CCCC(C)C)O2` [ALPHA-TOCOPHEROL], the IC50 result in experiment [1], in experiment [2], in experiment [3] (hek293), in experiment [4], in experiment [5] and in experiment [6] was “Not Active” throughout. Besides, in experiment [1], the Ki entry was “Not Active”.
For the molecule `Cc1ccc(/N=C/N(C)/C=N/c2ccc(C)cc2C)c(C)c1` [AMITRAZ], the IC50 entry in experiment [1], in experiment [2], in experiment [3] (hek293), in experiment [4], in experiment [5] and in experiment [6] was “Not Active” each time. The Ki entry in experiment [1] is given as “Not Active”.
`CN(C)c1nc(N(C)C)nc(N(C)C)n1` [ALTRETAMINE]: the IC50 entry in experiment [1], in experiment [2], in experiment [3] (hek293), in experiment [4], in experiment [5] and in experiment [6] was “Not Active” throughout. Moreover, in experiment [1], the Ki entry is “Not Active”.
For the molecule `COc1cc2c3cc1Oc1cc(ccc1O)C[C@@H]1c4c(cc(OC)c(O)c4Oc4ccc(cc4)C[C@@H]3N(C)CC2)CC[N+]1(C)C.[Cl-]`, the IC50 entry in experiment [1], in experiment [2], in experiment [3] (hek293), in experiment [4], in experiment [5] and in experiment [6] was “Not Active” in each case. Further, the Ki result in experiment [1] is on record as “Not Active”.
Consider `CN(Cc1ccc(C(C)(C)C)cc1)Cc1cccc2ccccc12` [BUTENAFINE], for which the IC50 entry in experiment [1], in experiment [2], in experiment [3] (hek293), in experiment [4], in experiment [5] and in experiment [6] was “Not Active” in each case. The Ki result in experiment [1] is recorded as “Not Active”.
On to `C[C@H](CCC(=O)O)[C@H]1CC[C@H]2[C@@H]3[C@H](O)C[C@@H]4C[C@H](O)CC[C@]4(C)[C@H]3C[C@H](O)[C@]12C` [CHOLIC ACID], for which the IC50 entry in experiment [1], in experiment [2], in experiment [3] (hek293), in experiment [4], in experiment [5] and in experiment [6] was “Not Active” each time. Further, the Ki result in experiment [1] is reported as “Not Active”.
Consider `CC1=C2C(=CO[C@H](C)[C@H]2C)C(O)=C(C(=O)O)C1=O` [CITRININ], for which the IC50 result in experiment [1], in experiment [2], in experiment [3] (hek293), in experiment [4], in experiment [5] and in experiment [6] was “Not Active” in each case. Further, the Ki result in experiment [1] was “Not Active”.
Consider `O=C(CCCN1CC=C(n2c(=O)[nH]c3ccccc32)CC1)c1ccc(F)cc1` [DROPERIDOL], for which the IC50 result in experiment [1], in experiment [2], in experiment [3] (hek293), in experiment [4], in experiment [5] and in experiment [6] was “Not Active” each time. Also, in experiment [1], the Ki entry is “Not Active”.
In the case of `CCCCc1nc(Cl)c(CO)n1Cc1ccc(-c2ccccc2-c2nnn[nH]2)cc1` [LOSARTAN], the IC50 result in experiment [1], in experiment [2], in experiment [3] (hek293), in experiment [4], in experiment [5] and in experiment [6] was “Not Active” throughout. In addition, the Ki entry in experiment [1] was “Not Active”.
For `Cc1cc(C2CCCCC2)n(O)c(=O)c1` [CICLOPIROX], the IC50 result in experiment [1], in experiment [2], in experiment [3] (hek293), in experiment [4], in experiment [5] and in experiment [6] was “Not Active” throughout. Besides, the Ki result in experiment [1] is “Not Active”.
In the case of `CCCCN1CCCC[C@H]1C(=O)Nc1c(C)cccc1C` [LEVOBUPIVACAINE], the IC50 result in experiment [1], in experiment [2], in experiment [3] (hek293), in experiment [4], in experiment [5] and in experiment [6] was “Not Active” in each case. The Ki entry in experiment [1] was “Not Active”.
Turning to `CC[C@@]1(O)C[C@H](O[C@H]2C[C@H](N(C)C)[C@H](O[C@H]3C[C@H](O)[C@H](O[C@H]4CCC(=O)[C@H](C)O4)[C@H](C)O3)[C@H](C)O2)c2c(cc3c(c2O)C(=O)c2c(O)cccc2C3=O)[C@H]1C(=O)OC` [ACLARUBICIN], the IC50 entry in experiment [1], in experiment [2], in experiment [3] (hek293), in experiment [4], in experiment [5] and in experiment [6] was “Not Active” throughout. Moreover, in experiment [1], the Ki entry was “Not Active”.

These data come from ChEMBL document CHEMBL1909046, “DrugMatrix in vitro pharmacology data”.
